Laboratory results published in patent US6852501B2, “Methods for determining ATPase activity and uses thereof” (Boehringer Ingelheim (Canada) Ltd., priority 1999, dated 2005).
Like-named read-outs stand apart in the source and are kept apart here.

What was measured:
HPV-11 E1 = target: T1, HPV-11 E1 (Human papillomavirus 11, UniProt P04014); assay: E1 ATPase SPA kinetic analysis (Km/Ki); type: biochemical, human papilloma virus
T1 construct: polyhistidine; made in house; host or cells: baculovirus-infected insect cells
T1 sequence (P04014 whole entry): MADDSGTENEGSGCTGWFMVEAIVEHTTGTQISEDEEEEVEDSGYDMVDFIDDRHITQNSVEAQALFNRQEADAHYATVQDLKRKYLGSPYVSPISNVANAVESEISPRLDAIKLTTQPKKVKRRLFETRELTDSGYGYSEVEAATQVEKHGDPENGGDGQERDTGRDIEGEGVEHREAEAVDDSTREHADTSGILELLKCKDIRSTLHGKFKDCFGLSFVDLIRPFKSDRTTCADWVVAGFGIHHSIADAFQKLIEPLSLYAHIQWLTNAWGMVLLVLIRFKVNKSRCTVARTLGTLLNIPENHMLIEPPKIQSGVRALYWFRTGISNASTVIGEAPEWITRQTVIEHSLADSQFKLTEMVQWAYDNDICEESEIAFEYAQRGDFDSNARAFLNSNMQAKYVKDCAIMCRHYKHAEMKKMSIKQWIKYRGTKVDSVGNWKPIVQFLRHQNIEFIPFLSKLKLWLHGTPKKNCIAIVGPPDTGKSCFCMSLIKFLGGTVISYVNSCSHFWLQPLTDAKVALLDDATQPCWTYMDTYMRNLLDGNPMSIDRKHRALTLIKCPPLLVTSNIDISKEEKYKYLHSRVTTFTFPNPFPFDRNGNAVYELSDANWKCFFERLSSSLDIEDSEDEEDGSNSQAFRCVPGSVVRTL
Description: Polyhistidine-tagged HPV-11 E1 was expressed in baculovirus-infected insect cells and purified by Ni-affinity chromatography as described in WO 99/57283 (incorporated herein by reference).
ATPase time-courses were run at different concentrations of ATP in order to determine the kinetic parameter Km(ATP) for HPV-11 E1. Reactions were run under similar conditions in both experiments, using the procedures given in Examples 1 and 2, except that the concentration of Igepal-CA630 was 0.01% rather than 0.005% and with experiment-specific changes noted below. The E1 concentration was 2 nM and the ATP concentrations ranged from 3-75 μM (TLC) or 2-50 μM (SPA), with the MgOAc concentration equal to the ATP concentration plus 0.5 mM. Stock solutions of ATP at each concentration were obtained by diluting the highest concentration solution with buffer containing 0.5 mM MgOAc; thus a constant ratio of radiolabeled to unlabeled ATP was used for all reactions. Reaction rates were measured by taking time-points from 10 or 20 to 120 minutes. To insure initial velocity conditions, time-points giving greater than 20% conversion were not used for analysis.
Total reaction volumes were 150 μL. For each time-point, 20 μL of reaction mixture was removed and combined with 40 μL of ammonium molybdate/SPA bead mixture followed by 80 μL of CsCl/citric acid. All reactions were run in triplicate. Plates were counted after overnight incubation. At the last time-point, an additional 20 μL aliquot was removed and combined with 10 μL 0.5 M EDTA. In this case, the conversion of ATP to phosphate was quantified by TLC, and the concentration of phosphate determined by TLC was compared to the cpm from the SPA procedure, after subtraction of blanks in both cases. The relationship between phosphate concentration and cpm is linear and the slope of the line was used to convert cpm values from SPA detection to concentration of phosphate produced. Rates of phosphate production at each ATP concentration were fit by nonlinear regression to the Michaelis-Menten equation using the program Grafit (V 3.01, R. Leatherbarrow).
The γ-thio phosphate analog of ATP inhibits many ATPases by a competitive mechanism. Experimental determination of the mechanism of inhibitor action requires measuring initial velocities for a number of substrate and inhibitor concentrations. The number of data points needed (several hundred) and the precision required for this experiment mean that performing the experiment by TLC detection is much more difficult and tedious. The SPA procedure works well, however. For this experiment, ATP concentrations of 5, 10, 20 and 40 μM were used, along with inhibitor concentrations of 0, 3, 6, 12 and 24 μM. Reactions were run as described for Example 9 (SPA detection). Data were processed as above and fit by nonlinear regression to an equation for competitive inhibition using GraFit. […] The plot was generated in Excel using the fitted parameters for the lines and the experimental values for points. For comparison, the data were also fit to an equation for non-competitive inhibition (equal binding of inhibitor to enzyme and enzyme-substrate complexes). […] Because of the quality of the data obtained it is possible to observe a systematic deviation between the experimental and fitted values for this second mechanism, especially at higher inhibitor concentrations.

[1] = target: HPV-6a ATPase activity (HPV-6 E1) (Human papillomavirus type 6a, UniProt Q84293); assay: E1 ATPase scintillation proximity assay, IC50 curves; type: biochemical, human papilloma virus; conditions: nonlinear regression; 1 μM ATP, 6 nM HPV-6 E1, 75 minutes, SPA detection; read-out: IC50 for inhibition of HPV-6a ATPase activity
HPV-6a ATPase activity (HPV-6 E1), sequence (Q84293 whole entry): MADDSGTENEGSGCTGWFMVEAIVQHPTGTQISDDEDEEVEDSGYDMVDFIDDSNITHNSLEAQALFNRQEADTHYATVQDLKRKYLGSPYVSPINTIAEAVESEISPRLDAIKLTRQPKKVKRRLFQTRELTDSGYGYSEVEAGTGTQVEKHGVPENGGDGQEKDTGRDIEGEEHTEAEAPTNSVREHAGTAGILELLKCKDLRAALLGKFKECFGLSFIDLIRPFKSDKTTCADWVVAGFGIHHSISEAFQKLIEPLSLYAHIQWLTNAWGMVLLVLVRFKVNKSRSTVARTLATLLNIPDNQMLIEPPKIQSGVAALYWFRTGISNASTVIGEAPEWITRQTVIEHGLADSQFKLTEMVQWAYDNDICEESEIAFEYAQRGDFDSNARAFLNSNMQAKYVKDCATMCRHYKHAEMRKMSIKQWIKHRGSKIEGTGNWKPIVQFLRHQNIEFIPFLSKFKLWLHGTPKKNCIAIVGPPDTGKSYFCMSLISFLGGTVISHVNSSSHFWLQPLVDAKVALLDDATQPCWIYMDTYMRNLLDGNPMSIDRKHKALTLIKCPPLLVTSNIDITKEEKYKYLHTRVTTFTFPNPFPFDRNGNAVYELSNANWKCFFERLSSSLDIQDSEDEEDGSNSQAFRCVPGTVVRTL
Procedure: Radiolabeled [γ-^33P]ATP (NEN) was prepared upon receipt by diluting it 100-fold in the reaction buffer and storing it at −80° C. Material stored in this way was good for greater than one month. E1 ATPase reactions were run in a buffer consisting of 20 mM HEPES, pH 7.5, 0.05 mM EDTA and 1 mM DTT, and 0.05% Igepal CA-630 (equivalent to Nonidet P40). Volumes and concentrations given below are typical, but these can be varied somewhat with minimal effect on results, as shown in later examples. One μM ATP (Amersham Pharmacia) and 500 μM MgOAc were mixed with [γ-^33P]ATP at 100-fold dilution from the stored material (10,000 dilution from the stock), or approximately 1 nCi/μL when fresh. The actual ATP concentration contributed by [γ-^33P]ATP was approximately 1 nM; this amount could be reduced further if necessary. […]
At the desired time, 40 μL reactions were stopped by adding 20 PL of a SPA bead-AmMo mixture. […] The extent of phosphate production was then determined by scintillation counting using the TopCount (Packard). If desired, cpm can be converted to phosphate concentration by comparison of SPA results to those determined by TLC (see below) for identical reactions. […]
All solutions are made in the assay buffer described in Example 3 except that the assay buffer also contained 0.005% Igepal CA-630. […] After mixing briefly, plates were left for 90 minutes and then counted on a TopCount. […]

Question: `Nc1ncnc2c1ncn2[C@@H]1O[C@H](COP(=O)(O)OP(=O)(O)OP(=O)(O)O)[C@@H](O)[C@H]1O` [ATP] was tested. Which Km (HPV-11 E1; background statement, measured in the absence of DNA, read-out: Km (ATP) of the HPV-11 E1 ATPase) did it give?
Answer: Its Km is about 10 µM.

Question: And the Km (HPV-11 E1; fit to competitive inhibition, read-out: Km(ATP))?
Answer: Its Km is 6.7 ± 0.7 µM.

Question: What about the Km (HPV-11 E1; fit to non-competitive inhibition, read-out: Km(ATP)) of the same molecule?
Answer: The Km was 12 ± 2 µM.

Question: With “adenosine-5′-O-(3-thiotriphosphate) [ATP-γ-S]” as the molecule, how does the mechanism of inhibition (HPV-11 E1; comparison of competitive and noncompetitive fits) read?
Answer: Its mechanism of inhibition is “the competitive model is more appropriate”.

Question: What about the Ki(ATP-γ-S) (HPV-11 E1; fit to non-competitive inhibition (equal binding to enzyme and enzyme-substrate complexes)) of the same molecule?
Answer: Its Ki(ATP-γ-S) is 16 ± 2 µM.

Question: And the IC50 [1]?
Answer: The IC50 was 8 ± 1.6 µM.
